Experimental data published in ChEMBL document CHEMBL3885881, “DrugMatrix”.
Values joined by “and” are separate entries in the source; they are usually repeats but may differ in a detail not shown here. Equal entries are not always repeated.

Species: Rattus norvegicus
Assay: DrugMatrix - Regimen: Daily Repeat
Format: toxicity, organism-based, Sprague-Dawley
Set-up: regimen Daily Repeat, gender Male, age 6-8 weeks
Conditions: in vivo, po, route oral GAVAGE, vehicle 100 % WATER; for ABSOLUTE SEGMENTED NEUTROPHIL / BASOPHIL / EOSINOPHIL / ERYTHROCYTE COUNT / HEMATOCRIT / HEMOGLOBIN / LEUKOCYTE COUNT / LYMPHOCYTE / MEAN CORPUSCULAR HEMOGLOBIN / MEAN CORPUSCULAR HEMOGLOBIN CONCENTRATION / MEAN CORPUSCULAR VOLUME / MONOCYTE / NEUTROPHIL / NUCLEATED RED BLOOD CELLS / PLATELET COUNT / ABSOLUTE BASOPHIL / ABSOLUTE EOSINOPHIL / ABSOLUTE LYMPHOCYTE / ABSOLUTE MONOCYTE: tissue Blood; for ALANINE AMINOTRANSFERASE / ALBUMIN / ALKALINE PHOSPHATASE / ASPARTATE AMINOTRANSFERASE / BLOOD UREA NITROGEN / CARBON DIOXIDE / CHLORIDE / CHOLESTEROL / CREATINE PHOSPHOKINASE / CREATININE / GLUCOSE / LACTATE DEHYDROGENASE / LIPASE / PHOSPHORUS / POTASSIUM / SODIUM / TOTAL BILIRUBIN / TOTAL PROTEIN / URIC ACID: tissue Plasma
[1] = 0 mg/kg, 72 h, dose level Control, time 3 day
[2] = 0 mg/kg, 120 h, dose level Control, time 5 day
[3] = 0 mg/kg, […], dose level Control, time 14 day
[4] = 120 mg/kg, 72 h, dose level High, time 3 day
[5] = 120 mg/kg, 120 h, dose level High, time 5 day

**Q.** What does the source list for COCCc1ccc(OCC(O)CNC(C)C)cc1 (centres undefined) [METOPROLOL]?
**A.** ABSOLUTE SEGMENTED NEUTROPHIL [1]: 1139.67 CELLS/uL; BASOPHIL [1]: 1.07% and 0%; EOSINOPHIL [1]: 1.03% and 0.83%; ERYTHROCYTE COUNT [1]: 5.88 x10E6/uL and 5.54 x10E6/uL; HEMATOCRIT [1]: 38.37% and 35.35%; HEMOGLOBIN [1]: 12.5 G/DL and 13.22 G/DL; LEUKOCYTE COUNT [1]: 11.61 x10E3/uL and 12 x10E3/uL; LYMPHOCYTE [1]: 74.4% and 89%; MEAN CORPUSCULAR HEMOGLOBIN [1]: 21.23 pg and 23.88 pg; MEAN CORPUSCULAR HEMOGLOBIN CONCENTRATION [1]: 32.5 G/DL and 37.4 G/DL; MEAN CORPUSCULAR VOLUME [1]: 65.47 fL and 63.85 fL; MONOCYTE [1]: 2.73% and 1%; NEUTROPHIL [1]: 20.17% and 9.17%; NUCLEATED RED BLOOD CELLS [1]: 0 /100WBC; PLATELET COUNT [1]: 1067 x10E3/uL and 1333.33 x10E3/uL; ALANINE AMINOTRANSFERASE [1]: 35.33 u/L and 53.17 u/L; ALBUMIN [1]: 3.83 G/DL and 4.32 G/DL; ALKALINE PHOSPHATASE [1]: 469.67 u/L and 404.33 u/L; ASPARTATE AMINOTRANSFERASE [1]: 65.33 u/L and 83.17 u/L; BLOOD UREA NITROGEN [1]: 16.33 mg/dL and 15.67 mg/dL; CARBON DIOXIDE [1]: 44.67 mmol/L and 27.33 mmol/L; CHLORIDE [1]: 102 MEQ/L and 101.83 MEQ/L; CHOLESTEROL [1]: 71.33 mg/dL and 68.67 mg/dL; CREATINE PHOSPHOKINASE [1]: 256.67 u/L and 276.17 u/L; CREATININE [1]: 0.4 mg/dL and 0.18 mg/dL; GLUCOSE [1]: 165 mg/dL and 163.5 mg/dL; LACTATE DEHYDROGENASE [1]: 114.33 u/L and 144.67 u/L; LIPASE [1]: 16 u/L and 8.83 u/L; PHOSPHORUS [1]: 10.7 mg/dL and 11.72 mg/dL; POTASSIUM [1]: 6.87 MEQ/L and 5.99 MEQ/L; SODIUM [1]: 143 MEQ/L and 143.57 MEQ/L; TOTAL BILIRUBIN [1]: 0.4 mg/dL and 0.2 mg/dL; TOTAL PROTEIN [1]: 6.37 G/DL and 6.1 G/DL; URIC ACID [1]: 0.87 mg/dL and 1.38 mg/dL; ABSOLUTE SEGMENTED NEUTROPHIL [2]: 1137.17 CELLS/uL; BASOPHIL [2]: 0.57% and 0%; EOSINOPHIL [2]: 1.33% and 1.67%; ERYTHROCYTE COUNT [2]: 6.38 x10E6/uL and 5.82 x10E6/uL; HEMATOCRIT [2]: 42.13% and 36.35%; HEMOGLOBIN [2]: 13.6 G/DL and 13.58 G/DL; LEUKOCYTE COUNT [2]: 13.38 x10E3/uL and 14.38 x10E3/uL; LYMPHOCYTE [2]: 81.03% and 90.5%; MEAN CORPUSCULAR HEMOGLOBIN [2]: 21.27 pg and 23.32 pg; MEAN CORPUSCULAR HEMOGLOBIN CONCENTRATION [2]: 32.27 G/DL and 37.42 G/DL; MEAN CORPUSCULAR VOLUME [2]: 66 fL and 62.42 fL; MONOCYTE [2]: 2% and 0.17%; NEUTROPHIL [2]: 14.33% and 7.67%; NUCLEATED RED BLOOD CELLS [2]: 0 /100WBC; PLATELET COUNT [2]: 1279.33 x10E3/uL and 1337.67 x10E3/uL; ALANINE AMINOTRANSFERASE [2]: 29 u/L and 48.5 u/L; ALBUMIN [2]: 3.8 G/DL and 4.32 G/DL; ALKALINE PHOSPHATASE [2]: 440.33 u/L and 354.33 u/L; ASPARTATE AMINOTRANSFERASE [2]: 61.33 u/L and 80 u/L; BLOOD UREA NITROGEN [2]: 15.67 mg/dL and 16 mg/dL; CARBON DIOXIDE [2]: 44.67 mmol/L and 27.33 mmol/L; CHLORIDE [2]: 102 MEQ/L and 100.33 MEQ/L; CHOLESTEROL [2]: 59.67 mg/dL and 68 mg/dL; CREATINE PHOSPHOKINASE [2]: 184.33 u/L and 325.17 u/L; CREATININE [2]: 0.3 mg/dL and 0.23 mg/dL; GLUCOSE [2]: 180 mg/dL and 172 mg/dL; LACTATE DEHYDROGENASE [2]: 88.33 u/L and 254.83 u/L; LIPASE [2]: 8 u/L and 8.33 u/L; PHOSPHORUS [2]: 10.73 mg/dL and 12.17 mg/dL; POTASSIUM [2]: 6.5 MEQ/L and 6.28 MEQ/L; SODIUM [2]: 145.67 MEQ/L and 143.57 MEQ/L; TOTAL BILIRUBIN [2]: 0.3 mg/dL and 0.18 mg/dL; TOTAL PROTEIN [2]: 6.3 G/DL and 6.12 G/DL; URIC ACID [2]: 0.8 mg/dL and 1.78 mg/dL; ABSOLUTE BASOPHIL [3]: 130 cells/µL; ABSOLUTE EOSINOPHIL [3]: 60 cells/µL; ABSOLUTE LYMPHOCYTE [3]: 9510 cells/µL; ABSOLUTE MONOCYTE [3]: 270 cells/µL; BASOPHIL [3]: 0.93%; EOSINOPHIL [3]: 0.5%; ERYTHROCYTE COUNT [3]: 7.2 x10E6/uL; HEMATOCRIT [3]: 43.27%; HEMOGLOBIN [3]: 14.73 G/DL; LEUKOCYTE COUNT [3]: 12.58 x10E3/uL; LYMPHOCYTE [3]: 75.5%; MEAN CORPUSCULAR HEMOGLOBIN [3]: 20.5 pg; MEAN CORPUSCULAR HEMOGLOBIN CONCENTRATION [3]: 34.07 G/DL; MEAN CORPUSCULAR VOLUME [3]: 60.1 fL; MONOCYTE [3]: 1.33%; NEUTROPHIL [3]: 20.5%; PLATELET COUNT [3]: 1162 x10E3/uL; ALANINE AMINOTRANSFERASE [3]: 25.33 u/L; ALBUMIN [3]: 3.87 G/DL; ALKALINE PHOSPHATASE [3]: 321.67 u/L; ASPARTATE AMINOTRANSFERASE [3]: 60.33 u/L; BLOOD UREA NITROGEN [3]: 13.33 mg/dL; CARBON DIOXIDE [3]: 45 mmol/L; CHLORIDE [3]: 104.67 MEQ/L; CHOLESTEROL [3]: 72.33 mg/dL; CREATINE PHOSPHOKINASE [3]: 213.33 u/L; CREATININE [3]: 0.3 mg/dL; GLUCOSE [3]: 164 mg/dL; LACTATE DEHYDROGENASE [3]: 84.33 u/L; LIPASE [3]: 18.33 u/L; PHOSPHORUS [3]: 10.23 mg/dL; POTASSIUM [3]: 6.17 MEQ/L; SODIUM [3]: 144 MEQ/L; TOTAL BILIRUBIN [3]: 0.37 mg/dL; TOTAL PROTEIN [3]: 6.43 G/DL; URIC ACID [3]: 0.0667 mg/dL; ABSOLUTE BASOPHIL [4]: 76.7 cells/µL; ABSOLUTE EOSINOPHIL [4]: 230 cells/µL; ABSOLUTE LYMPHOCYTE [4]: 5150 cells/µL; ABSOLUTE MONOCYTE [4]: 220 cells/µL; BASOPHIL [4]: 1.03%; EOSINOPHIL [4]: 3.13%; ERYTHROCYTE COUNT [4]: 6.58 x10E6/uL; HEMATOCRIT [4]: 42.5%; HEMOGLOBIN [4]: 14.4 G/DL; LEUKOCYTE COUNT [4]: 7.41 x10E3/uL; LYMPHOCYTE [4]: 69.3%; MEAN CORPUSCULAR HEMOGLOBIN [4]: 21.87 pg; MEAN CORPUSCULAR HEMOGLOBIN CONCENTRATION [4]: 33.8 G/DL; MEAN CORPUSCULAR VOLUME [4]: 64.63 fL; MONOCYTE [4]: 2.97%; NEUTROPHIL [4]: 23.23%; PLATELET COUNT [4]: 1007 x10E3/uL; ALANINE AMINOTRANSFERASE [4]: 35 u/L; ALBUMIN [4]: 3.7 G/DL; ALKALINE PHOSPHATASE [4]: 368.67 u/L; ASPARTATE AMINOTRANSFERASE [4]: 69.33 u/L; BLOOD UREA NITROGEN [4]: 16.67 mg/dL; CARBON DIOXIDE [4]: 34.67 mmol/L; CHLORIDE [4]: 104 MEQ/L; CHOLESTEROL [4]: 74.33 mg/dL; CREATINE PHOSPHOKINASE [4]: 338.33 u/L; CREATININE [4]: 0.47 mg/dL; GLUCOSE [4]: 161.33 mg/dL; LACTATE DEHYDROGENASE [4]: 274.33 u/L; LIPASE [4]: 13 u/L; PHOSPHORUS [4]: 11.6 mg/dL; POTASSIUM [4]: 6.57 MEQ/L; SODIUM [4]: 142.67 MEQ/L; TOTAL BILIRUBIN [4]: 0.37 mg/dL; TOTAL PROTEIN [4]: 6.03 G/DL; URIC ACID [4]: 0.97 mg/dL; ABSOLUTE BASOPHIL [5]: 66.7 cells/µL; ABSOLUTE EOSINOPHIL [5]: 380 cells/µL; ABSOLUTE LYMPHOCYTE [5]: 7010 cells/µL; ABSOLUTE MONOCYTE [5]: 250 cells/µL
